Test results as given in PMC12228718, “A porin-like protein used by bacterial predators defines a wider lipid-trapping superfamily” (Nature Communications, 2025).

Key:
PopAhis = molecular target: T1, PopAhis (Bdellovibrio bacteriovorus, UniProt Q6MQN4); experiment: liposome swelling assay (OD400); format: biochemical; details: relative to OmpF with L-arabinose = 100%; pH 7.0 proteoliposomes; passive permeation
T1 construct: gene Bd0427; mature PopA with internal His tag SSHHHHHHGSS inserted after A103 (loop 2); pelB leader at start; pET29b, E. coli BL21(DE3) RIPL; native folded, DDM-solubilised; homopentamer

PopA (Bd0427; PopAΔSP) = molecular target: T2, PopA (Bd0427; PopAΔSP) (Bdellovibrio bacteriovorus, UniProt Q6MQN4); experiment: X-ray crystallography (C222_[…] Å); format: binding; details: palmitate modelled in difference density behind loop 2 helix, carboxylate to R88; ligand not added, placed after AlphaFold3 suggestion
T2 construct: aa 21-353, signal peptide removed; selenomethionyl form A phased; homopentamer

[1] = molecular target: PopAhis (mature PopA with an internal His tag in loop 2), natively folded (B. bacteriovorus HD100); experiment: cryo-EM structure; native PopAhis, 0.02 mg/mL in 50 mM Tris pH 8, 150 mM NaCl, 0.03% w/v DDM; 2.85 Å in C1 symmetry, 2.66 Å in C5 symmetry
[2] = molecular target: PopAΔSP (Bd0427, aa 21-353), refolded (B. bacteriovorus HD100); experiment: crystal structure; refolded PopAΔSP in β-OG detergent; C222(1) crystal form, 2.8 Å; five copies in the asymmetric unit

T1 sequence (Q6MQN4 entry or part of it): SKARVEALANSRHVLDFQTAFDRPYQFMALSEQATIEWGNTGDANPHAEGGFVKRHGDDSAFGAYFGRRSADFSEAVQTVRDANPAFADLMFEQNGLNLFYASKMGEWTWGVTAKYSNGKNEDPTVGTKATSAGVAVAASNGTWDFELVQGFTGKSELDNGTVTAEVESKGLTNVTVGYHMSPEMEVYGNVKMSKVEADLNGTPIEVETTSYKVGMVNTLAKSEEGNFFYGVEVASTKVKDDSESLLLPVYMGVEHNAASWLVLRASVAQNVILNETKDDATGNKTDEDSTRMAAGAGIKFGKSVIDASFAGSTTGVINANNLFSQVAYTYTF
T2 sequence (Q6MQN4 entry or part of it, stated change not applied): as the sequence (Q6MQN4 entry or part of it) above

C[C@H](N)C(=O)O [alanine] was tested, and the relative swelling rate (PopAhis) was “only able to permit the passage of small substrates, notably glycine and alanine (Fig. 3e)”.
With NCC(=O)O [glycine] the relative swelling rate (PopAhis) was “only able to permit the passage of small substrates, notably glycine and alanine (Fig. 3e)”.
With CCCCCCCCCCCCCCCC(=O)O [palmitate] the “X-ray crystallography (C222_1, 2.8 Å)” value (PopA (Bd0427; PopAΔSP)) was “Refinement verified that palmitate fits the density well (Fig. 2h)”.
“PopAhis (mature PopA with an internal His tag in loop 2), natively folded (natural protein)” was tested, and the stoichiometry N [1] was 5.
With “PopAΔSP (Bd0427, aa 21-353), refolded (natural protein)” the stoichiometry N [2] was 5.
